The text below walks through data of publication PMC10418735, “Lipophilic Studies and In Silico ADME Profiling of Biologically Active 2-Aminothiazol-4(5H)-one Derivatives” (International Journal of Molecular Sciences, 2023).

A short description of data set [1]: Lipophilicity by RP-TLC (methanol/water, HPTLC 60RP-18 plates). The format is physicochemical. The following applies: for −S (slope of the regression curve), RP–TLC / RM0: methanol/water, RP-TLC; for RM0: extrapolated to zero methanol concentration, 22 °C; for Φ0 (chromatographic lipophilicity parameter), RP–TLC: Φ0 = −RM0/S. On the procedure:
Specifically, 10 × 10 cm plates with silica gel HPTLC 60RP-18 WF254s (Merck, Darmstadt, Niemcy) were used as the stationary phase. Methanol and water for HPLC from POCH (Gliwice, Poland) were used as solvents. Methanol concentration expressed as volume fraction v/v, varied in the range from 0.5 to 0.7 in constant steps of 0.05. Test compounds were dissolved in methanol (2 mg/mL), and then samples (0.01 mL) of each were applied to plates, which were developed in a horizontal DS chamber (Chromdes, Lublin, Poland).
The developing distance was 8 cm. Developed plates were air-dried and observed under 254 nm ultraviolet lamp. All analyzes were performed at 22 °C. Experiments were performed in triplicate with similar results.
For all the compounds, the relative lipophilicity RM values for five methanol–water mobile phases were calculated by the use of the following formula:(4) RM=log[1−RF/RF].
The linear relationship between the RM values and the concentration of methanol in the mobile phase to determine the lipophilicity parameters RM0 is described by the following equation:(5) RM=RM0+SΦ, where Φ —methanol concentration in the mobile phase (volume fraction v/v), and S—the slope of the regression curve.
The quantity Φ0 was calculated from the following equation:(6) Φ0=−RM0/S.

Data set [2] in a line: Lipophilicity by RP-HPLC (methanol/water, RP-18 column). It counts as physicochemical. The conditions noted are these: for −S (slope of the regression curve), RP–HPLC / log kw: methanol/water, RP-HPLC; for log kw: extrapolated to zero methanol concentration, 25 °C; for Φ0 (chromatographic lipophilicity parameter), RP–HPLC: Φ0 = −log kw/S. On the procedure: The HPLC experiments were performed on the Shimadzu HPLC system (Kyoto, Japan) equipped with solvent delivery pump LC-20AD, UV–VIS detector model SPD-20A, degasser model DGU-20A5, a column oven model CTO-20A, and a column Superspher® 100 RP-18 (4 μm), Merck (Darmstadt, Germany). Methanol and water for HPLC from POCH (Gliwice, Poland) were used as solvents. Mobile phase methanol/water varied in the various ratios. Methanol concentration expressed as volume fraction v/v, varied in the range from 0.55 to 0.95 in constant steps of 0.05. Compounds 1–28 were dissolved in methanol (1 mg/mL). The mobile phase flow rate was 0.7 mL/min. The injection volume was 0.02 mL. All analyzes were performed at 25 °C. Experiments were performed in triplicate with similar results.
The retention coefficient k was calculated from the following relationship:(1) k=tr/tm−1, where tr [min]—retention time, and tm [min]—time for dead volume (measured by use of uracil).
To determine the linear relationship between the values of the log k parameter and the concentration of methanol in the mobile phase, the Soczewiński–Wachtmeister equation was used:(2) logk= log kw+SΦ, where log kw —value extrapolated to zero methanol concentration, Φ —methanol concentration in the mobile phase (volume fraction v/v), and S—the slope of the regression curve.
The parameter Φ0 was calculated from the equation:(3) Φ0=−log kw/S.

For the compound `CC(C)C1SC(NC23CC4CC(CC(C4)C2)C3)=NC1=O` (centres unmarked) [Compound 22], in data set [1], the “−S (slope of the regression curve), RP–TLC” value worked out at 3.175 and the RM0 was 2.67. Moreover, in data set [2], the “−S (slope of the regression curve), RP–HPLC” value is 4.744; the log kw is on record as 3.94; the “Φ0 (chromatographic lipophilicity parameter), RP–HPLC” value came out at 0.830.
Consider `CC1(C)SC(NC23CC4CC(CC(C4)C2)C3)=NC1=O` [Compound 23], for which, in data set [1], the “−S (slope of the regression curve), RP–TLC” value is given as 2.446; the RM0 is listed as 2.11; the “Φ0 (chromatographic lipophilicity parameter), RP–TLC” value amounted to 0.863. Further, in data set [2], the “−S (slope of the regression curve), RP–HPLC” value worked out at 4.392; the log kw is given as 3.54; the “Φ0 (chromatographic lipophilicity parameter), RP–HPLC” value came to 0.806.
As to `O=C1N=C(NC23CC4CC(CC(C4)C2)C3)SC1c1ccccc1` (centres unmarked) [Compound 24, 2-(adamantan-1-ylamino)-5-phenylthiazol-4(5H)-one], in data set [1], the “−S (slope of the regression curve), RP–TLC” value was found to be 4.203; the RM0 is recorded as 3.31; the “Φ0 (chromatographic lipophilicity parameter), RP–TLC” value was found to be 0.787. In data set [2], the “−S (slope of the regression curve), RP–HPLC” value was 5.024; the log kw is recorded as 4.13; the “Φ0 (chromatographic lipophilicity parameter), RP–HPLC” value was found to be 0.822.
As to `O=C1N=C(NC23CC4CC(CC(C4)C2)C3)SC1c1ccc(Br)cc1` (centres unmarked) [Compound 25, 2-(adamantan-1-ylamino)-5-(4-bromophenyl)thiazol-4(5H)-one], in data set [1], the “−S (slope of the regression curve), RP–TLC” value came to 3.277; the RM0 was 3.56; the “Φ0 (chromatographic lipophilicity parameter), RP–TLC” value came out at 1.086. Further, in data set [2], the “−S (slope of the regression curve), RP–HPLC” value is reported as 5.578; the log kw is reported as 5.63; the “Φ0 (chromatographic lipophilicity parameter), RP–HPLC” value was found to be 1.009.
On to `O=C1N=C(NC23CC4CC(CC(C4)C2)C3)SC12CCCCC2` [Compound 26], for which, in data set [1], the “−S (slope of the regression curve), RP–TLC” value was found to be 3.520; the RM0 is 3.09; the “Φ0 (chromatographic lipophilicity parameter), RP–TLC” value is 0.879. Further, in data set [2], the “−S (slope of the regression curve), RP–HPLC” value is recorded as 5.192; the log kw was 4.49; the “Φ0 (chromatographic lipophilicity parameter), RP–HPLC” value is given as 0.865.
On to `O=C1N=C(NC23CC4CC(CC(C4)C2)C3)SC12CCC2` [Compound 27], for which, in data set [1], the “−S (slope of the regression curve), RP–TLC” value came to 3.025; the RM0 was 2.56; the “Φ0 (chromatographic lipophilicity parameter), RP–TLC” value stood at 0.847. In data set [2], the “−S (slope of the regression curve), RP–HPLC” value was 4.383; the log kw is reported as 3.66; the “Φ0 (chromatographic lipophilicity parameter), RP–HPLC” value came out at 0.835.
For `O=C1CSC(NC23CC4CC(CC(C4)C2)C3)=N1` [Compound 28, 2-(Adamantylamino)thiazol-4(5H)-one], in data set [1], the “−S (slope of the regression curve), RP–TLC” value is on record as 2.482; the RM0 is on record as 2.06; the “Φ0 (chromatographic lipophilicity parameter), RP–TLC” value turned out to be 0.832. In data set [2], the “−S (slope of the regression curve), RP–HPLC” value was determined as 3.783; the log kw was 2.87; the “Φ0 (chromatographic lipophilicity parameter), RP–HPLC” value was 0.759.
